Laboratory results: patent US9857359B2, “Methods for determining drug efficacy using cereblon-associated proteins” (CELGENE CORPORATION, priority 2012, dated 2018)

Key:
Aiolos [1] = experiment: Aiolos protein expression in T cells with or without proteasome inhibitor; format: cell-based
Experimental: U266 cells were obtained from ATCC (American Type Culture Collection, Manassas, Va., USA). DF15 cells were obtained from John Shaughnessy (University of Arkansas, Little Rock, Ark., USA). CD19+ B cells were purchased from HemaCare BioResearch Products (Van Nuys, Calif.). Cells were grown in RPMI-1640 medium (Cellgro, Manassas, Va.) containing 10% (V/V) heat-inactivated fetal bovine serum (Gibco, Grand Island, N.Y., USA) supplemented with 2 mM glutamine. […] Primary T cells were isolated from human leukocytes (Blood Center of New Jersey, East Orange, N.J.) by centrifugation through FICOLL® centrifugation medium following the ROSETETTESEP™ protocol (Stem Cell Technologies, Vancouver, Canada). […] Dexamethasone (Sigma, St. Louis, Mo.), melphalan (Sigma, St. Louis, Mo.) and bortezomib (Selleck Chemicals, Houston, Tex.) treated was for 6 hours. The final DMSO concentration is 0.1%. Cells were pre-treated with 10 μM MG-132 (Calbiochem Biochemicals, Billerica, Mass.) for 30 minutes prior to drug addition. Cells were harvested, washed in PBS and cell lysates separated on SDS-PAGE gels (Bio-Rad, Hercules, Calif.). […] The blots were analyzed on ODESSEY® imager (LI-COR Biosciences, Lincoln, Nebr.).

Aiolos [2] = experiment: Aiolos immunohistochemistry in OCI-LY10 xenograft lymphoma; format: in vivo, mice
Experimental: Xenografts from lymphoma OCI-LY10 cells were used for the following experiments. Immunohistochemistry was performed on the Bond-Max automated slide stainer (Leica Microsystems) using the associated Bond Polymer Refine Detection Kit. Four micron thick FFPE sections were deparaffinized on the instrument. Antigen retrieval was performed with Epitope Retrieval 2 (pH 9.0) for 20 minutes at 100° C. The slides were blocked for endogenous peroxidase activity with Peroxide Block for 5 minutes at room temperature. […] Enzymatic detection of anti-Aiolos antibody was accomplished with hydrogen peroxide substrate and diaminobenzidine tetrahydrochloride (DAB) chromogen at room temperature for 10 minutes. Slides were counterstained with Hematoxylin for 5 minutes at room temperature.

Aiolos/IKZF3 = experiment: Cyno Monkey dose regimen study, Aiolos Western blotting of PBMC; format: in vivo, Cynomolgus (M. fascicularis); details: for Aiolos 42 kD / Aiolos 58 kD: in several monkeys
From the text: As depicted in FIG. 4, the study in Cynomolgus monkeys was divided in two phases: Phase I (7 days of oral doing with test article, Compound B hydrochloride) followed by 28 day test article free period and finally Phase II (28 days of oral dosing with test article). The objective of the Phase I of this study was to determine the onset and duration of pharmacodynamic effect of Compound B. The objective of the Phase II of this study was to explore the relationship the pharmacodynamic effects and safety/tolerability of Compound B. In addition, the toxicokinetic characteristics of Compound B were determined. Doses of Compound B tested were 0.75 mg/kg QD, every other day, or 4 days on, 3 days off. The test and control articles were administered to the appropriate animals by gavage from Days 1 to 7 for Phase I and from Days 1 to 28 in Phase II following dose regimens as described above. Phase I and Phase II were separated by at least a 28 day dose free session. The dose volume for each animal was based on the most recent body weight measurement. A naso/orogastric tube was inserted through a nostril (nasogastric) or through the mouth (orogastric) and advanced into the lower esophagus to the stomach. The animals were temporarily restrained (e.g., manually) for dose administration, and were not sedated. Disposable sterile syringes and naso/orogastric tubes were used for each animal/dose. Each dose were followed by a tap water flush of approximately 5 mL. The dosing formulations were stirred continuously during dose administration. Peripheral blood mononuclear cell subsets analyzed by flow cytometry were: CD45^+/CD3^+/CD20^+/CD16^+, CD45^+/CD20^+, CD45^+/CD3^+, CD45^+/CD3^+/CD4^+, CD45^+/CD3^+/CD8^+, CD45^+/CD3^−/CD16^+, CD45^+/CD3^−/CD14^+. Anti-KLH antibody titers were assayed by ELISA (FIG. 5). The protein levels of Aiolos/IKZF3 were measured in the peripheral blood mononuclear cells as follows. Cynomolgus (M. fascicularis) blood yielded approximately 10 million (10×10^6) mononuclear cells (PBMC) per 2.5 ml whole blood (according to protocol by Non Human Primate Reagent Source, Boston). After the cyno PBMC isolation, each sample was divided into two portions: 7×10^6 cells for protein analysis and 3×10^6 cells for mRNA analysis. All steps were done on ice, all centrifugation in a 4° C. refrigerated centrifuge. RIPA lysis buffer (Pierce, cat#89900) was prepared by adding 10 μL proteinase inhibitors (Pierce, cat#78443) to 1 mL of RIPA buffer. The PBMC was washed once in ice-cold phosphate buffered saline (PBS). Lysis buffer (use 0.25 mL RIPA lysis buffer per 7×10^6 PBMC) was added. The tube was placed on ice for 30 minutes, vortexed every 10 min. The lysate was frozen and store at −80° C. until analysis. The lysate was placed into a QIAshredder tube (QIAGEN, cat#79656) and spun down 30 sec at top speed (13200 rpm) in an Eppendorf benchtop centrifuge (Model 5415 R). […] The supernatant was collected without disturbing cell debris pellet (RIPA reagent enables the extraction of membrane, nuclear and cytoplasmic proteins that will remain in the supernatant). The protein lysate was frozen on dry ice and stored at −80° C. until analysis. The protein concentration was measured using BCA assay. The protein yield was expected to be 0.5-5 μg/μL, or 125-1250 μg total. ≧10 μg protein was loaded per lane for western for IKZF3/Aiolos using antibodies against the human proteins.

NCI-H929 tumor cells = experiment: H929 xenograft anti-tumor activity; format: in vivo, SCID mice; details: H929 MM cells in mice, oral daily
Experimental: Female SCID mice (Fox Chase SCID®, C.B-17/Icr-Prkdcscid, Charles River) (Wilmington, Mass.) were injected subcutaneously in the right flank with total of 1×10^7 NCI-H929 tumor cells in 50% matrigel (BD Biosciences). […] Mice were monitored daily for health status as well as tumor growth. Tumors of all mice were measured with a digital caliper, and volumes were calculated with the following formula: tumor volume (mm^3)=length (mm)×width (mm)^2.

`Cc1nc2cccc(N)c2c(=O)n1C1CCC(=O)NC1=O` (stereo not drawn) [Compound A, 3-(5-amino-2-methyl-4-oxo-4H-quinazolin-3-yl)-piperidine-2,6-dione] was tested, and the Aiolos expression (Aiolos [1]; absence of a proteasome inhibitor) was “inhibit the expression of Aiolos”, the Aiolos expression (Aiolos [1]; proteasome inhibitor present) was “little inhibition was observed” and the “Approximate Aiolos levels in compound treated tumors (rank order)” value (Aiolos [2]; all lower than vehicle or vincristine treated tumors) was “S-isomer of Compound A<Compound A<R-isomer of Compound A<lenalidomide”. The “Aiolos expression in lymphoma cells” value (Aiolos [2]; immunohistochemistry) was “inhibited the expression of Aiolos”.

`O=C1CC[C@H](N2Cc3c(OCc4ccc(CN5CCOCC5)cc4)cccc3C2=O)C(=O)N1` [Compound B, 3-(4-((4-(morpholinomethyl)benzyl)oxy)-1-oxoisoindolin-2-yl)piperidine-2,6-dione] was tested, and the Aiolos expression (Aiolos/IKZF3; Cyno monkeys, all dosing regimens) was “generally inhibits the expression of Aiolos”, the “Aiolos 42 kD” value (Aiolos/IKZF3; Group 2, QD dosing) was “increased Aiolos 42 kD” and the “Aiolos 58 kD” value (Aiolos/IKZF3; Group 2, QD dosing) was “reduced Aiolos 58 kD”. The “Aiolos 42 kD” value (Aiolos/IKZF3; Group 3, Q2D dosing) was “increased Aiolos 42 kD”, the “Aiolos 58 kD” value (Aiolos/IKZF3; Group 3, Q2D dosing) was “reduced Aiolos 58 kD” and the “Aiolos 42 kD” value (Aiolos/IKZF3; Group 4, 4 day/week dosing) was “increased Aiolos 42 kD”. The “Aiolos 58 kD” value (Aiolos/IKZF3; Group 4, 4 day/week dosing) was “reduced Aiolos 58 kD”.

With `Nc1cccc2c1CN(C1CCC(=O)NC1=O)C2=O` (stereo not drawn) [lenalidomide] the “In vivo antitumor activity” value (NCI-H929 tumor cells) was “correlates with reduction of Aiolos and Ikaros levels”.
